These results are taken from patent publication US10376557B2, “Peptide fragments for inducing synthesis of extracellular matrix proteins” (HELIX BIOMEDIX, INC., priority 2006, dated 2019).

What all share (format): cell-based
The test system of one assay is Human dermal fibroblasts. The assay can be described thus: SIRCOL collagen assay: soluble collagen released by dermal fibroblasts incubated with peptides. The conditions noted are these: for Average (A560 nm) / Average minus blank (A560 nm) / Collagen: second series; for Collagen: * = may not be significant, detection limit 2.5 μg. Here is the method: Several sequences identified in Examples 1 and 2 were synthesized using standard peptide chemistry and assayed for the stimulation of collagen from dermal fibroblasts. The synthesized peptides were amidated at the C-terminus, which rendered the tetrapeptides less susceptible to protease degradation and increased their solubility compared to the free acid forms. Human dermal fibroblasts were incubated in 96-well plates at 37° C. and 5% CO2 for 24 and 48 hours in 150 μL complete cell culture media (Cascade Biologics, Portland, Oreg.; Cat. No. M-106-500), supplemented with Low Serum Growth Supplement (Cascade Biologics, Portland, Oreg.; Cat. No. […] Each well was seeded with 10,000 cells. Following the incubation, 100-μL medium samples were recovered from each well and assayed for collagen production
The assays were performed by Tebu-bio Laboratories (France) using the SIRCOL™ Collagen Assay Kit (Biocolor Assays, UK) following the manufacturer's protocol. The SIRCOL™ Collagen Assay is a quantitative dye-binding method designed for the analysis of soluble collagens released into culture medium by mammalian cells during in vitro culture. The collagen of the tested samples binds to the anionic SIRCOL™ dye. The collagen-dye complexes precipitate out of solution and are pelleted by centrifugation. The recovered collagen-dye pellet was dissolved in an alkaline solution prior to absorbance measurements. Duplicate measurements were taken at the 24 and 48 hour times from two separate samples. The four measurements for each sample were averaged. The absorbance of reagent blanks, collagen standards, and samples were measured at 560 nm. The reagent blank absorbance was subtracted from the absorbance from each sample at 24 and 48 hours.
Two separate data sets were used to generate two collagen standard calibration curves. The first calibration curve was generated for purposes of calculating the quantity of collagen in samples H6 (combination of SEQ ID NOs:1-4), […] (SEQ ID NOs:1-8, respectively) and H15 (combination of SEQ ID NOs:5-8). The second calibration curve was generated for calculating the quantity of collagen in samples H16 (SEQ ID NO:9), H21-23 (SEQ ID NOs:10-12, respectively), H25-26 (SEQ ID NOs:13-14, respectively), or H29-30 (SEQ ID NOs:15-16, respectively), H32 (SEQ ID NO:17), H33 (combination of SEQ ID NOs:9-12), H34 (combination of SEQ ID NOs:11-14), H35 (combination of SEQ ID NOs:13-16), H36 (combination of SEQ ID NOs:1, 6, 5, 8), H37 (SEQ ID NO: 17) and H38 (SEQ ID NO:8) from the absorbance measurements was created by plotting the Abs560nm of the known collagen standards versus the respective concentrations of the collagen standards (in micrograms) each time a series of assays were performed. With respect to each data set, the same calibration curve was used for samples taken at the 24 and 48 hour times (Tables 2A and 2B). Accordingly, different standard curves were prepared immediately prior to performing each series of assays.
A linear regression was performed from plotting the Abs560nm values versus concentrations of the respective collagen standards using MICROSOFT EXCEL™. […] As the results were identical, only the 24-hour time period was used for the second series calibration curves. The formula of the line obtained on assay date 1 and assay date 2 of the second series of samples was y=0.0178x and y=0.0162x, respectively. The peptide LL-37 (SEQ ID NO:18) was used as a positive control as it has been widely reported to have an impact upon wound healing in man (Heilborn et al., The Cathelicidin Anti-Microbial Peptide LL-37 Is Involved In The Re-Epithelialization Of Human Skin Wounds And Is Lacking In Chronic Ulcer Epithelium, J. Invest. Dermato. 120:379-89 (2003). The assay detection limit defined by the manufacturer is 2.5 μg. […]

Assay [1] concerns human skin epithelial cells (CRL-2592). Nature of the assay: In vitro scratch wound closure of skin epithelial cell monolayer. The protocol:
Wound healing experiments were performed on monolayers of human skin epithelial cells (CRL-2592) plated onto 12-well plates. Cells were serum-starved for 24 hours before experimentation. Confluent monolayers of CRL-2592 were wounded using a P200 (200-μL) pipette tip. The wounds were washed and picture-documented prior to peptide treatment. Peptides were added to a final concentration from 20 to 40 μg/ml. Cells were kept in an incubator at 37° C., 5% CO2, and 92% humidity, except when images were being captured for a short period at room temperature. Wound closure was followed at 6-hour and 10-hour time points. PBS-treated wounds were used as negative controls for comparison purposes.

For assay [2], the system named is human skin fibroblast monolayer. The assay can be described thus: Wound closure in skin fibroblast monolayer (data not shown). The source says: In vitro monolayer wound closure is a result of cell migration, which is important in many biological processes such as embryogenesis, angiogenesis, inflammatory reactions and wound repair. These processes are thought to be regulated by interactions with other cells, cytokines and ECM proteins.

As to PGPP (Synthetic Peptide H26), the “Released collagen (μg/mL) 24 h” value in the assay on Human dermal fibroblasts (24 h, peptide 50 μg/mL (per Table 5)) is 29 µg/mL. In the assay with Human dermal fibroblasts (24 hours, peptide 50 μg/mL), the “Average (A560 nm)” value is listed as 0.13, the “Average minus blank (A560 nm)” value was 0.05 and the “Collagen” value worked out at 2.9 µg. In the assay on Human dermal fibroblasts (24 hrs, [Peptide] 50 μg/mL), the “Collagen produced (μg/mL) 24 hrs” value is 29 µg/mL. Moreover, the “Released collagen (μg/mL) 48 h” value with Human dermal fibroblasts (48 h, peptide 50 μg/mL (per Table 5)) was determined as 35 µg/mL. Further, in the assay on Human dermal fibroblasts (48 hours, peptide 50 μg/mL), the “Average (A560 nm)” value is reported as 0.12, the “Average minus blank (A560 nm)” value was 0.06 and the “Collagen” value worked out at 3.5 µg. Further, in the assay with Human dermal fibroblasts (48 hrs, [Peptide] 50 μg/mL), the “Collagen produced (μg/mL) 48 hrs” value was determined as 35 µg/mL. Further, the “Significant release of collagen at 24 h and 48 h” value in the assay on Human dermal fibroblasts (check mark = yes, 25 μg/mL considered significant, peptide 50 μg/mL) is recorded as “✓”. Further, the “W-size (wound size) 0 hr” value in assay [1] (0 hr, prior to peptide treatment) is given as 25 arbitrary. The “W-size (wound size) 6 hr” value in assay [1] (6 hr, peptide 20 to 40 μg/ml) was 12 arbitrary. For the same substance, in assay [1] (6 hr, peptide 20 to 40 μg/ml, PBS controls 19.40%, 19.20%), the “% closure 6 hr” value is recorded as 52%. Besides, in assay [1] (10 hr, peptide 20 to 40 μg/ml), the “W-size (wound size) 10 hr” value was determined as 2.75 arbitrary. In addition, the “% closure 10 hr” value in assay [1] (10 hr, peptide 20 to 40 μg/ml, PBS controls 41.70%, 42.30%) is recorded as 89%. In assay [1] (epithelial cell monolayer), the “wound closure compared to PBS alone (in words)” value is given as “significantly induces wound closure”. The “wound closure in fibroblast monolayer (in words)” value in assay [2] is reported as “does not induce wound closure”.
